Results as given in patent US20250186442A1, “Obicetrapib and Ezetimibe Combination Treatment and Fixed Dose Pharmaceutical Compositions” (NewAmsterdam Pharma B.V., priority 2022, published 2025).

Columns and labels:
LDL-C = experiment: ROSE2 phase 2b clinical trial - LDL-C; format: in vivo, human; conditions: for LDL-C Change from Baseline to Day 28, Mean / LDL-C Change from Baseline to Day 28, Median / LDL-C Change from Baseline to Day 84, Mean / LDL-C Change from Baseline to Day 84, Median / LDL-C Day 28, Mean / LDL-C Day 28, Median / LDL-C Day 84, Mean / LDL-C Day 84, Median / LDL-C Percent Change from Baseline to Day 28 (%), Mean / LDL-C Percent Change from Baseline to Day 28 (%), Median / LDL-C Percent Change from Baseline to Day 84 (%), Mean / LDL-C Percent Change from Baseline to Day 84 (%), Median: obicetrapib 10 mg, ezetimibe 10 mg
Description: The primary objective of this study is to evaluate the effect of obicetrapib 10 mg+ezetimibe 10 mg combination therapy compared with placebo, when used as an adjunct to high-intensity statin therapy, on LDL-C at Day 84.
(§1) The secondary objectives of this study include the following, in hierarchical order: • To evaluate the effect of obicetrapib 10 mg monotherapy compared with placebo, when used as an adjunct to high-intensity statin therapy, on LDL-C at Day 84; • To evaluate the effect of obicetrapib 10 mg+ezetimibe 10 mg combination therapy compared with placebo, when used as an adjunct to high-intensity statin therapy, on ApoB at Day 84; and • To evaluate the effect of obicetrapib 10 mg monotherapy compared with placebo, when used as an adjunct to high-intensity statin therapy, on ApoB at Day 84.
(§2) This study will be a placebo-controlled, double-blind, randomized, Phase 2 study to evaluate the efficacy, safety, and tolerability of obicetrapib 10 mg, both in combination with ezetimibe 10 mg and as monotherapy, as an adjunct to high-intensity statin therapy. This study will take place at approximately 20 sites in the United States.
(§3) Up to 2 weeks after the Screening Visit, participants will return to the site on Day 1 (Visit 2) and confirm study eligibility before being randomized and beginning treatment. Approximately 114 eligible participants (38 participants per treatment group) will be randomized in a 1:1:1 ratio to 1 of the following treatment groups: • Combination therapy: Obicetrapib 10 mg+ezetimibe 10 mg (administered as one 10 mg obicetrapib tablet and one 10 mg ezetimibe capsule); • Obicetrapib monotherapy: Obicetrapib 10 mg (administered as one 10 mg obicetrapib tablet and 1 placebo capsule); or • Placebo (administered as 1 placebo tablet and 1 placebo capsule).
During the 12-week Treatment Period, the assigned study drugs will be administered by the participants orally with water, once daily on Day 1 to Day 84 at approximately the same time each morning. Participants will return to the site on Day 28 (+2 days), Day 84 (+2 days), and Day 112 (+2 days) for efficacy, safety, and pharmacokinetic (PK) assessments. Participants, Investigators, the Clinical Research Organization (CRO), and the Sponsor will be blinded to all lipid results from Day 1 (Visit 2) for the first participant until all enrolled participants complete the Day 84 (End of Treatment) visit or are withdrawn from the study, in order to protect blinding to treatment assignment.
The primary efficacy endpoint is the percent change from Day 1 to Day 84 in LDL-C for the obicetrapib 10 mg+ezetimibe 10 mg combination treatment group compared with the placebo group.
(§4) The secondary efficacy endpoints include the following, in hierarchical order: • Percent change from Day 1 to Day 84 in LDL-C for the obicetrapib 10 mg monotherapy • treatment group compared with the placebo group; • Percent change from Day 1 to Day 84 in ApoB for the obicetrapib 10 mg+ezetimibe 10 mg • combination treatment group compared with the placebo group; and • Percent change from Day 1 to Day 84 in ApoB for the obicetrapib 10 mg monotherapy treatment group compared with the placebo group.
The exploratory efficacy endpoints include the following: • Percent change from Day 1 to Day 84 in non-HDL-C, VLDL-C, HDL-C, TG, ApoE, Lp(a), and HDL-ApoE for the obicetrapib 10 mg+ezetimibe 10 mg combination treatment group compared with the placebo group and for the obicetrapib 10 mg monotherapy treatment group compared with the placebo group; and • Proportion of participants at Day 84 that achieve LDL-C<2.6 mmol/L (<100 mg/dL), LDL-C<1.8 mmol/L (<70 mg/dL), and LDL-C<1.3 mmol/L (<50 mg/dL) for the obicetrapib 10 mg+ezetimibe 10 mg combination treatment group compared with the placebo group and for the obicetrapib 10 mg monotherapy treatment group compared with the placebo group. […]

ApoB = experiment: ROSE2 phase 2b clinical trial - ApoB; format: in vivo, human; conditions: obicetrapib 10 mg, ezetimibe 10 mg
Description: as §1, §2, §3, §4
Blood samples for the lipid profile must be obtained under fasting conditions (ie, after the participant has fasted for approximately 10 hours). For the purposes of this study, fasting will be defined as nothing by mouth except water and any essential medications. If a participant is not fasting, the Investigator should reschedule the visit as soon as possible. LDL-C level will be calculated using the Friedewald equation unless TG≥400 mg/dL or LDL-C≤50 mg/dL; in both cases, LDL-C level will be measured directly by preparative ultracentrifugation, also referred to as beta quantification. Additionally, LDL-C will be measured by preparative ultracentrifugation, also referred to as beta quantification, at baseline (Visit 2) and at the end of the 12-week Treatment Period (Visit 4) for all participants.
The Modified ITT (mITT) Population will include all participants in the ITT Population who receive at least 1 dose of any study drug and have a baseline value for the LDL-C assessment. Any efficacy measurement obtained during the Safety Follow-up Visit (Visit 5) after a participant permanently discontinues the study drug or after a participant receives an excluded medication and/or procedure will be removed from the mITT analysis. Treatment classification will be based on the randomized treatment. The mITT Population will be used for the primary analysis of all efficacy endpoints.

QTcF = conditions: TA-8995-04; cited from earlier work

For `CCOC(=O)N1c2ccc(C(F)(F)F)cc2[C@@H](N(Cc2cc(C(F)(F)F)cc(C(F)(F)F)c2)c2ncc(OCCCC(=O)O)cn2)C[C@H]1CC` [Obicetrapib, {4-[(2-{[3,5-bis(trifluoromethyl)benzyl][(2R,4S)-1-(ethoxycarbonyl)-2-ethyl-6-(trifluoromethyl)-1,2,3,4-tetrahydroquinolin-4-yl]amino}pyrimidin-5-yl)oxy]butanoic acid}], the “LDL-C Change from Baseline to Day 28, Mean” value (LDL-C; Exploratory Population) was -43.0 mg/dL, the “LDL-C Change from Baseline to Day 28, Median” value (LDL-C; Exploratory Population) was -45.0 mg/dL and the “LDL-C Change from Baseline to Day 84, Mean” value (LDL-C; Exploratory Population) was -39.9 mg/dL. For the same molecule, the “LDL-C Change from Baseline to Day 84, Median” value (LDL-C; Exploratory Population) was -38.5 mg/dL, the “LDL-C Day 28, Mean” value (LDL-C; Exploratory Population) was 57.6 mg/dL and the “LDL-C Day 28, Median” value (LDL-C; Exploratory Population) was 51.5 mg/dL. The “LDL-C Day 84, Mean” value (LDL-C; Exploratory Population) was 60.7 mg/dL, the “LDL-C Day 84, Median” value (LDL-C; Exploratory Population) was 55.5 mg/dL and the “LDL-C Percent Change from Baseline to Day 28 (%), Mean” value (LDL-C; Exploratory Population) was −43.59%. For the same molecule, the “LDL-C Percent Change from Baseline to Day 28 (%), Median” value (LDL-C; Exploratory Population) was −43.90%, the “LDL-C Percent Change from Baseline to Day 84 (%), Mean” value (LDL-C; Exploratory Population) was −39.35% and the “LDL-C Percent Change from Baseline to Day 84 (%), Median” value (LDL-C; Exploratory Population) was −43.50%. For the same molecule, the “median reduction in LDL-C” value (LDL-C; ROSE2 phase 2b (NCT05266586), obicetrapib 10 mg with or without ezetimibe 10 mg) was 39%, the “LDL-C Change from Baseline to Day 28, Mean” value (LDL-C; mITT Population) was -33.2 mg/dL and the “LDL-C Change from Baseline to Day 28, Median” value (LDL-C; mITT Population) was -35.0 mg/dL. The “LDL-C Change from Baseline to Day 84, Mean” value (LDL-C; mITT Population) was -21.3 mg/dL, the “LDL-C Change from Baseline to Day 84, Median” value (LDL-C; mITT Population) was -29.5 mg/dL and the “LDL-C Day 28, Mean” value (LDL-C; mITT Population) was 70.3 mg/dL. The “LDL-C Day 28, Median” value (LDL-C; mITT Population) was 56.0 mg/dL, the “LDL-C Day 84, Mean” value (LDL-C; mITT Population) was 82.7 mg/dL and the “LDL-C Day 84, Median” value (LDL-C; mITT Population) was 65.0 mg/dL. For the same molecule, the “LDL-C Percent Change from Baseline to Day 28 (%), Mean” value (LDL-C; mITT Population) was −32.21%, the “LDL-C Percent Change from Baseline to Day 28 (%), Median” value (LDL-C; mITT Population) was −41.70% and the “LDL-C Percent Change from Baseline to Day 84 (%), Mean” value (LDL-C; mITT Population) was −18.92%. For the same molecule, the “LDL-C Percent Change from Baseline to Day 84 (%), Median” value (LDL-C; mITT Population) was −32.35%, the “ApoB Change from Baseline to Day 28, Mean” value (ApoB; Exploratory Population) was -24.2 mg/dL and the “ApoB Change from Baseline to Day 28, Median” value (ApoB; Exploratory Population) was -23.0 mg/dL. The “ApoB Change from Baseline to Day 84, Mean” value (ApoB; Exploratory Population) was -20.5 mg/dL, the “ApoB Change from Baseline to Day 84, Median” value (ApoB; Exploratory Population) was -21.5 mg/dL and the “ApoB Day 28, Mean” value (ApoB; Exploratory Population) was 65.4 mg/dL. For the same molecule, the “ApoB Day 28, Median” value (ApoB; Exploratory Population) was 64.5 mg/dL, the “ApoB Day 84, Mean” value (ApoB; Exploratory Population) was 69.1 mg/dL and the “ApoB Day 84, Median” value (ApoB; Exploratory Population) was 65.0 mg/dL. The “ApoB Percent Change from Baseline to Day 28 (%), Mean” value (ApoB; Exploratory Population) was −26.00%, the “ApoB Percent Change from Baseline to Day 28 (%), Median” value (ApoB; Exploratory Population) was −26.00% and the “ApoB Percent Change from Baseline to Day 84 (%), Mean” value (ApoB; Exploratory Population) was −21.73%. For the same molecule, the “ApoB Percent Change from Baseline to Day 84 (%), Median” value (ApoB; Exploratory Population) was −24.20%, the “ApoB Change from Baseline to Day 28, Mean” value (ApoB; mITT Population) was -18.9 mg/dL and the “ApoB Change from Baseline to Day 28, Median” value (ApoB; mITT Population) was -20.0 mg/dL. The “ApoB Change from Baseline to Day 84, Mean” value (ApoB; mITT Population) was -10.4 mg/dL, the “ApoB Change from Baseline to Day 84, Median” value (ApoB; mITT Population) was -14.5 mg/dL and the “ApoB Day 28, Mean” value (ApoB; mITT Population) was 73.4 mg/dL. The “ApoB Day 28, Median” value (ApoB; mITT Population) was 66.0 mg/dL, the “ApoB Day 84, Mean” value (ApoB; mITT Population) was 82.4 mg/dL and the “ApoB Day 84, Median” value (ApoB; mITT Population) was 72.0 mg/dL. The “ApoB Percent Change from Baseline to Day 28 (%), Mean” value (ApoB; mITT Population) was −19.16%, the “ApoB Percent Change from Baseline to Day 28 (%), Median” value (ApoB; mITT Population) was −23.10% and the “ApoB Percent Change from Baseline to Day 84 (%), Mean” value (ApoB; mITT Population) was −9.50%. For the same molecule, the “ApoB Percent Change from Baseline to Day 84 (%), Median” value (ApoB; mITT Population) was −17.35% and the “effect on the QTcF” value (QTcF) was “no effect”.
